This is an account of results in ChEMBL document CHEMBL2396547, “Anticancer effects of a novel class rosin-derivatives with different mechanisms” (Bioorg Med Chem Lett, 2013).

For data set [1], the system named is HeLa. The experiment in a line: Cytotoxicity against human HeLa cells assessed as growth inhibition after 72 hrs by MTT assay. It counts as functional, cell-based. (In general: Tetrazolium assays rely on reduction of a dye to a coloured formazan, in cell work by metabolically active cells.)
Data set [2] relates to EJ. Briefly: Cytotoxicity against human EJ cells assessed as cell death up to 20 uM measured within 1 hr by MTT assay. In kind it is functional, cell-based.
Data set [3] relates to EJ. Briefly: Induction of apoptosis in human EJ cells assessed as decrease in procaspase-3 level at 5 uM after 24 hrs by Western blot analysis. In kind it is functional, cell-based. (In western blotting, separated proteins are transferred to a membrane and probed.)
The nature of data set [4]: Hemolytic activity in mouse RBC at 100 uM after 1 hr by ELISA relative to control. Particulars: for Activity: erythrocyte, 1 h, 100 µM; for hemolysis at 1 h, 100 µM: mouse red blood cells, read-out: Activity. In kind it is ADME, cell-based, Erythrocyte.
In data set [5] the test system is EJ. Briefly: Induction of necrosis in human EJ cells assessed as disruption of membrane integrity at 15 uM after 1 hr by propidium iodide uptake assay. In kind it is functional, cell-based.
The test system of data set [6] is EJ. The experiment in a line: Induction of apoptosis in human EJ cells assessed as late apoptotic cells at 5 uM after 24 hrs by annexin V-FITC/propidium iodide staining-based flow cytometric analysis (reference value: 0.08 to 0.22%). In kind it is functional.
Data set [7] deals with EJ. Briefly: Induction of apoptosis in human EJ cells assessed as nuclear condensation at 5 uM after 24 hrs by Hoechst 33342 staining-based confocal microscopic analysis. In kind it is functional, cell-based.
Data set [8] has as its system PC-3. Briefly: Cytotoxicity against human PC3 cells assessed as growth inhibition after 72 hrs by MTT assay. It counts as functional, cell-based. Conditions: PC-3, 72 h.
Data set [9] concerns EJ. Briefly: Induction of apoptosis in human EJ cells assessed as increase in cytosolic cytochrome c level at 5 uM after 24 hrs by Western blot analysis. In kind it is functional, cell-based.
The test system of data set [10] is EJ. The experiment in a line: Induction of apoptosis in human EJ cells assessed as decrease in procaspase-9 level at 5 uM after 24 hrs by Western blot analysis. It counts as functional, cell-based.
Data set [11] relates to EJ. Briefly: Induction of apoptosis in human EJ cells assessed as nuclear fragmentation at 5 uM after 24 hrs by transmission electron microscopic analysis. It counts as functional, cell-based.
The test system of data set [12] is EJ. Briefly: Cytotoxicity against human EJ cells assessed as cell death at 5 to 20 uM after 24 hrs by MTT assay. It counts as functional, cell-based.
For data set [13], the system named is EJ. The experiment in a line: Induction of apoptosis in human EJ cells assessed as cristae swelling at 5 uM after 24 hrs by transmission electron microscopic analysis. In kind it is functional, cell-based.
Data set [14] relates to EJ. The experiment in a line: Induction of apoptosis in human EJ cells assessed as caspase-8 activation at 5 uM after 24 hrs by Western blot analysis. In kind it is functional, cell-based.
For data set [15], the system named is EJ. Briefly: Induction of necrosis in human EJ cells assessed as disruption of membrane integrity measuring loss of microvilli at 15 uM after 1 hr by scanning electron microscopic analysis. It counts as functional, cell-based.
Data set [16] has as its system EJ. Briefly: Induction of apoptosis in human EJ cells assessed as disruption of mitochondria with frequent fusion between great number of vaculoes at 5 uM after 24 hrs by transmission electron microscopic analysis. In kind it is functional, cell-based.
The test system of data set [17] is EJ. The experiment in a line: Induction of necrosis in human EJ cells assessed as disruption of membrane integrity measuring pore formation at 15 uM after 1 hr by scanning electron microscopic analysis. It counts as functional, cell-based.
The subject of data set [18] is EJ. The experiment in a line: Induction of apoptosis in human EJ cells assessed as necrotic cells at 5 uM after 24 hrs by annexin V-FITC/propidium iodide staining-based flow cytometric analysis (reference value: 0.28 to 0.30%). In kind it is functional. On the technique in general: Flow cytometry measures light scatter and fluorescence of single cells or particles in a stream.

In data set [19] the test system is Jurkat. Briefly: Cytotoxicity against human Jurkat cells assessed as growth inhibition after 72 hrs by MTT assay. In kind it is functional, cell-based.
Data set [20] relates to 5637. Briefly: Cytotoxicity against human 5637 cells assessed as growth inhibition after 72 hrs by MTT assay. Conditions: Homo sapiens, 5637, 72 h. In kind it is functional, cell-based.
For data set [21], the system named is EJ. Briefly: Cytotoxicity against human EJ cells assessed as growth inhibition after 72 hrs by MTT assay. In kind it is functional, cell-based.
The subject of data set [22] is EJ. Briefly: Induction of apoptosis in human EJ cells assessed as formation of apoptotic bodies at 5 uM after 24 hrs by Hoechst 33342 staining-based confocal microscopic analysis. In kind it is functional, cell-based.
The subject of data set [23] is EJ. The experiment in a line: Induction of apoptosis in human EJ cells assessed as viable cells at 5 uM after 24 hrs by annexin V-FITC/propidium iodide staining-based flow cytometric analysis (reference value: 99.6%). In kind it is functional. Particulars: read-out: Activity.
The subject of data set [24] is EJ. Briefly: Induction of apoptosis in human EJ cells assessed as mitochondrial matrix condensation at 5 uM after 24 hrs by transmission electron microscopic analysis. In kind it is functional, cell-based.
The test system of data set [25] is EJ. The experiment in a line: Induction of apoptosis in human EJ cells assessed as peripheral nuclear chromatin condensation at 5 uM after 24 hrs by transmission electron microscopic analysis. It counts as functional, cell-based.
Data set [26] has as its system EJ. Briefly: Induction of apoptosis in human EJ cells assessed as early apoptotic cells at 5 uM after 24 hrs by annexin V-FITC/propidium iodide staining-based flow cytometric analysis (reference value: 0.01 to 0.04%). It counts as functional.
Data set [27] deals with EJ. Briefly: Cytotoxicity against human EJ cells assessed as cell death at 10 to 20 uM after 1 hr by MTT assay. It counts as functional, cell-based.

The source made the active and inactive calls. The rule behind the calls is not given here.

`C=CC1CN2CCC1CC2[C@H](NC(=S)NC[C@]1(C)CCC[C@]2(C)c3ccc(C(C)C)cc3CC[C@@H]12)c1ccnc2ccc(OC)cc12` (stereo partly drawn): the half-inhibitory concentration (IC50) (as a rule, the concentration that gives 50% inhibition) in data set [1] turned out to be 3.21 µM; in [8] it was 2.98 µM; in data set [19], 2.2 µM; in data set [20], 2.64 µM; in data set [21] it was 2.07 µM. In addition, the result in data set [2], in data set [3], in data set [5], in [14], in [15] and in data set [17] was inactive. The Activity entry in [4] is “Non-toxic”; in [6] it was 4.01%; in data set [18], 0.12%; in data set [26], 89%. The result in data set [7], in data set [9], in data set [10], in data set [11], in data set [12] and in [13] was Active. Further, the outcome in data set [16], in data set [22], in data set [24] and in data set [25] was Active. For the same compound, the viability at 5 µM in [23] turned out to be 6.83%.
Regarding `CC(C)c1ccc2c(c1)CC[C@H]1[C@](C)(CNC(=S)N[C@@H]3CCCC[C@H]3N3CCCC3)CCC[C@]21C`, the half-inhibitory concentration (IC50) turned out to be 4.47 µM in data set [1]; 4.7 µM in [8]; 3.39 µM in data set [19]; 3.59 µM in [20]; 3.44 µM in [21]. Moreover, the result in data set [5], in data set [7], in data set [9], in data set [10] and in data set [22] was Active. The Activity in [6] worked out at 4.73%; in data set [18] it was 0.01%; in data set [26] it was 94.6%. Further, the viability at 5 µM in [23] was determined as 0.64%.
Turning to `CC(C)c1ccc2c(c1)CC[C@H]1[C@](C)(CNC(=S)N[C@H]3CCCC[C@@H]3N)CCC[C@]21C`, the IC50 is 3.73 µM in data set [1]; 3.52 µM in [8]; 3.48 µM in [19]; 3.14 µM in [20]; 3.05 µM in [21]. The result in data set [3] and in data set [14] was inactive. In data set [4], the hemolysis at 1 h, 100 µM came to 74.4%. Moreover, the outcome in data set [5], in data set [27], in data set [7], in data set [9], in [10] and in data set [11] was Active. Also, the result in [13], in data set [15], in data set [16], in data set [17], in data set [22] and in data set [24] was Active. Further, the outcome in data set [25] was Active. For the same compound, the figures for the Activity in data set [6], in [18] and in data set [26] were 9.06%, 0.25% and 81.9%, respectively. Besides, in [23], the viability at 5 µM was 8.8%.
Take `CC(C)c1ccc2c(c1)CC[C@H]1[C@](C)(CNC(=S)N[C@H]3CCCC[C@@H]3N(C)C)CCC[C@]21C`: the half-inhibitory concentration (IC50) in data set [1] is 5.12 µM; in [8], 5.53 µM; in data set [19], 4.32 µM; in data set [20] it was 4.62 µM; in [21] it was 4.19 µM. In addition, the outcome in data set [5], in [7], in data set [9], in data set [10] and in data set [22] was Active. Moreover, the Activity in [6] came to 7.45%; in [18], 0%; in [26], 92.2%. The viability at 5 µM in data set [23] worked out at 0.32%.
With `CC(C)c1ccc2c(c1)CC[C@H]1[C@](C)(C(=O)O)CCC[C@]21C` [DEHYDROABIETIC ACID], the IC50 came out at 28.4 µM in [1]; 28.1 µM in data set [8]; 25.5 µM in data set [19]; 27.6 µM in [20]; 25.1 µM in data set [21].
For the compound `C=C[C@H]1C[N@@]2CC[C@H]1C[C@H]2[C@H](O)c1ccnc2ccc(OC)cc12` [QUININE], the Activity result in data set [4] is “Non-toxic”.
Regarding `CC(C)c1ccc2c(c1)CC[C@H]1[C@](C)(CNC(=S)N[C@H]3CCCC[C@@H]3N3CCCC3)CCC[C@]21C`, the half-inhibitory concentration (IC50) in data set [1] is 5.76 µM; in data set [8] it was 6.57 µM; in data set [19] it was 4.5 µM; in [20] it was 5.18 µM; in data set [21], 4.29 µM. In addition, the result in [5], in data set [7], in data set [9], in [10] and in data set [22] was Active. The Activity amounted to 4.53% in [6], 0% in data set [18] and 95.1% in data set [26]. In addition, in data set [23], the viability at 5 µM came to 0.35%.
Regarding `CC(C)c1ccc2c(c1)CC[C@H]1[C@](C)(CN)CCC[C@]21C`, the IC50 was 7.68 µM in data set [1]; 7.88 µM in data set [8]; 4.85 µM in [19]; 8.7 µM in [20]; 4.82 µM in data set [21]. For the same compound, the result in data set [3] and in data set [14] was inactive. In addition, the hemolysis at 1 h, 100 µM in data set [4] worked out at 17.9%. Also, the outcome in data set [5], in data set [27], in data set [7], in data set [9], in data set [10] and in data set [22] was Active. Also, the figures for the Activity in data set [6], in [18] and in data set [26] were 5.85%, 0.13% and 87.9%, respectively. Moreover, in data set [23], the viability at 5 µM turned out to be 6.16%.
Take `C=C[C@H]1CN2CC[C@H]1C[C@H]2[C@H](O)c1ccnc2ccc(OC)cc12` [QUININE]: the IC50 in [1], in [8], in data set [19], in data set [20] and in data set [21] was greater than 50 µM throughout. Moreover, the result in data set [2] was inactive.
